Data as given in US20150147385A1, “INTRAVENOUS SYNTHETIC CURCUMIN (S-CURCUMIN) FOR THE TREATMENT OF PROLIFERATIVE DISORDERS” (SignPath Pharma, Inc., priority 2013, published 2015).
Values after ≈ are worked out from the molar mass of the structure shown. Like-named read-outs stand apart in the source and are kept apart here.

Experiments:
[1] = Solubilities of S-curcumin and C3-complex curcumin in different organic solvents; assay type: physicochemical; settings: for solubility: organic solvent or mixture, read-out: Conc. (solubility)
Description: Comparison of PLGA C3-complex-curcumin vs PLGA S-curcumin indicated the following differences. The solubilities of 99.2% S-Curcumin in all four solvents. […] This confers improved manufacturing capability, and attributes to different pharmacokinetics and pharmacodynamics in in vivo settings (Table 1). [table]

[2] = test system: breast cancer cell line MCF10ACA1H; assay: Scratch assay (wound healing) in MCF10ACA1H; assay type: cell-based, human; settings: 12 hour exposure

COc1cc(C=CC(=O)CC(=O)C=Cc2ccc(O)c(OC)c2)ccc1O [S-curcumin, 1,7-bis(4-hydroxy-3-methoxyphenyl)-1,6-heptadiene-3,5-dione]
Solubility compared with C3 complex ([1]; normalized to equal concentrations, ethanol, ethyl acetate, acetone, acetonitrile): greater solubility
solubility ([1]; solvent acetone): 42300 µg/mL (≈ 115 mM)
solubility ([1]; solvent acetonitrile): 5440 µg/mL (≈ 14.8 mM)
solubility ([1]; solvent ethanol): 3800 µg/mL (≈ 10.3 mM)
solubility ([1]; solvent ethyl acetate): 10400 µg/mL (≈ 28.2 mM)
1 g of solvent solubilize in solvent ([1]; solvent acetone): 23.6 mL
Physical appearance of solubility ([1]; solvent acetone): Fully
1 g of solvent solubilize in solvent ([1]; solvent acetonitrile): 184 mL
Physical appearance of solubility ([1]; solvent acetonitrile): Partial
1 g of solvent solubilize in solvent ([1]; solvent ethanol): 263 mL
Physical appearance of solubility ([1]; solvent ethanol): Partial
1 g of solvent solubilize in solvent ([1]; solvent ethyl acetate): 96.2 mL
Physical appearance of solubility ([1]; solvent ethyl acetate): Partial
More effective than C3-curcumin in interfering with wound healing [2]: 30%
